Results: a compilation of properties of binary mixtures (doi:10.1007/s10953-005-5594-7)

Experiment: xn = mol fraction of the nth substance listed
Conditions: 298.15 K, 101.3 kPa

CCCC[n+]1ccn(C)c1.F[P-](F)(F)(F)(F)F + CCC(=O)CC
Conditions	viscosity [mPa·s]
x2 = 0	270

CCCC[n+]1ccn(C)c1.F[P-](F)(F)(F)(F)F + CC(C)=O
Conditions	viscosity [mPa·s]
x2 = 0	270
x2 = 0.1147	137
x2 = 0.198	84.8
x2 = 0.2923	46.7
x2 = 0.4035	24
x2 = 0.4993	13.41
x2 = 0.5495	9.68
x2 = 0.6519	4.99
x2 = 0.6989	3.69
x2 = 0.8956	0.81
x2 = 0.9481	0.516

CCC(C)=O + CCCC[n+]1ccn(C)c1.F[P-](F)(F)(F)(F)F
Conditions	viscosity [mPa·s]
x1 = 1	0.388

CCC(=O)CC + CCCC[n+]1ccn(C)c1.F[P-](F)(F)(F)(F)F
Conditions	viscosity [mPa·s]
x1 = 0.1088	137
x1 = 0.3986	24.26
x1 = 0.4491	17.94
x1 = 0.5503	10.02
x1 = 0.601	7.37
x1 = 0.6983	4.03
x1 = 0.8007	2.022
x1 = 0.9019	0.972
x1 = 0.948	0.69
x1 = 1	0.458

CC(C)=O + CCCC[n+]1ccn(C)c1.F[P-](F)(F)(F)(F)F
Conditions	viscosity [mPa·s]
x1 = 1	0.316

O=C1CCCC1 + CCCC[n+]1ccn(C)c1.F[P-](F)(F)(F)(F)F
Conditions	viscosity [mPa·s]
x1 = 0.1883	114.8
x1 = 0.4475	33.04
x1 = 0.5025	24.71
x1 = 0.6034	14.52
x1 = 0.6502	11.01
x1 = 0.7011	7.89
x1 = 0.8041	4.19
x1 = 0.8982	2.274
x1 = 0.9518	1.566
x1 = 1	1.074

CCCC[n+]1ccn(C)c1.F[P-](F)(F)(F)(F)F + CCOC(C)=O
Conditions	viscosity [mPa·s]
x2 = 0	270
x2 = 0.0937	149
x2 = 0.1914	87.9
x2 = 0.2918	48.2
x2 = 0.3944	27.52
x2 = 0.4485	20.54
x2 = 0.4967	16.16
x2 = 0.5529	11.52
x2 = 0.6039	8.45
x2 = 0.7092	4.21
x2 = 0.8037	2.208
x2 = 0.898	1.083
x2 = 0.9504	0.699

CCOC(C)=O + CCCC[n+]1ccn(C)c1.F[P-](F)(F)(F)(F)F
Conditions	viscosity [mPa·s]
x1 = 1	0.439

CCCC[n+]1ccn(C)c1.F[P-](F)(F)(F)(F)F + CCC(C)=O
Conditions	viscosity [mPa·s]
x2 = 0	270
x2 = 0.0995	145
x2 = 0.2007	81.6
x2 = 0.5002	13.55
x2 = 0.5506	9.82
x2 = 0.5988	7.27
x2 = 0.7023	3.701
x2 = 0.8004	1.861
x2 = 0.9027	0.861
x2 = 0.9487	0.606
